According to patent US9340590B2 (priority 2011, dated 2016):
pIC50: −log10 of the molar value. Where two headings read alike, the source gives them in different places. Positions of bridges follow the written chain, without caps; N, C: chain ends. Non-standard residues stand in square brackets, D forms with d. Residues, ends and D or L forms follow the SMILES beside them. Phe(4-COOH) = N[C@@H](Cc1ccc(C(=O)O)cc1)C(=O)O

Tests used:
Assay in all cases: cell-based
[1] = molecular target: hNav1.3 (Homo sapiens, UniProt Q9NY46); settings: IonWorks Quattro, read-out: IWQ Use Nav1.3
[2] = molecular target: hNav1.5 (Homo sapiens, UniProt Q14524)
[3] = molecular target: hNav1.7 (Homo sapiens, UniProt Q15858); type: cell-based; settings: IonWorks Quattro, read-out: IWQ Use Nav1.7
[4] = IonWorks Quattro, Use, read-out: IWQ Use Nav1.5
[5] = IonWorks Quattro, use-dependent block, hNav1.5, read-out: IWQ Use Nav1.5

Sequence of hNav1.3 (Q9NY46 whole entry, looked up): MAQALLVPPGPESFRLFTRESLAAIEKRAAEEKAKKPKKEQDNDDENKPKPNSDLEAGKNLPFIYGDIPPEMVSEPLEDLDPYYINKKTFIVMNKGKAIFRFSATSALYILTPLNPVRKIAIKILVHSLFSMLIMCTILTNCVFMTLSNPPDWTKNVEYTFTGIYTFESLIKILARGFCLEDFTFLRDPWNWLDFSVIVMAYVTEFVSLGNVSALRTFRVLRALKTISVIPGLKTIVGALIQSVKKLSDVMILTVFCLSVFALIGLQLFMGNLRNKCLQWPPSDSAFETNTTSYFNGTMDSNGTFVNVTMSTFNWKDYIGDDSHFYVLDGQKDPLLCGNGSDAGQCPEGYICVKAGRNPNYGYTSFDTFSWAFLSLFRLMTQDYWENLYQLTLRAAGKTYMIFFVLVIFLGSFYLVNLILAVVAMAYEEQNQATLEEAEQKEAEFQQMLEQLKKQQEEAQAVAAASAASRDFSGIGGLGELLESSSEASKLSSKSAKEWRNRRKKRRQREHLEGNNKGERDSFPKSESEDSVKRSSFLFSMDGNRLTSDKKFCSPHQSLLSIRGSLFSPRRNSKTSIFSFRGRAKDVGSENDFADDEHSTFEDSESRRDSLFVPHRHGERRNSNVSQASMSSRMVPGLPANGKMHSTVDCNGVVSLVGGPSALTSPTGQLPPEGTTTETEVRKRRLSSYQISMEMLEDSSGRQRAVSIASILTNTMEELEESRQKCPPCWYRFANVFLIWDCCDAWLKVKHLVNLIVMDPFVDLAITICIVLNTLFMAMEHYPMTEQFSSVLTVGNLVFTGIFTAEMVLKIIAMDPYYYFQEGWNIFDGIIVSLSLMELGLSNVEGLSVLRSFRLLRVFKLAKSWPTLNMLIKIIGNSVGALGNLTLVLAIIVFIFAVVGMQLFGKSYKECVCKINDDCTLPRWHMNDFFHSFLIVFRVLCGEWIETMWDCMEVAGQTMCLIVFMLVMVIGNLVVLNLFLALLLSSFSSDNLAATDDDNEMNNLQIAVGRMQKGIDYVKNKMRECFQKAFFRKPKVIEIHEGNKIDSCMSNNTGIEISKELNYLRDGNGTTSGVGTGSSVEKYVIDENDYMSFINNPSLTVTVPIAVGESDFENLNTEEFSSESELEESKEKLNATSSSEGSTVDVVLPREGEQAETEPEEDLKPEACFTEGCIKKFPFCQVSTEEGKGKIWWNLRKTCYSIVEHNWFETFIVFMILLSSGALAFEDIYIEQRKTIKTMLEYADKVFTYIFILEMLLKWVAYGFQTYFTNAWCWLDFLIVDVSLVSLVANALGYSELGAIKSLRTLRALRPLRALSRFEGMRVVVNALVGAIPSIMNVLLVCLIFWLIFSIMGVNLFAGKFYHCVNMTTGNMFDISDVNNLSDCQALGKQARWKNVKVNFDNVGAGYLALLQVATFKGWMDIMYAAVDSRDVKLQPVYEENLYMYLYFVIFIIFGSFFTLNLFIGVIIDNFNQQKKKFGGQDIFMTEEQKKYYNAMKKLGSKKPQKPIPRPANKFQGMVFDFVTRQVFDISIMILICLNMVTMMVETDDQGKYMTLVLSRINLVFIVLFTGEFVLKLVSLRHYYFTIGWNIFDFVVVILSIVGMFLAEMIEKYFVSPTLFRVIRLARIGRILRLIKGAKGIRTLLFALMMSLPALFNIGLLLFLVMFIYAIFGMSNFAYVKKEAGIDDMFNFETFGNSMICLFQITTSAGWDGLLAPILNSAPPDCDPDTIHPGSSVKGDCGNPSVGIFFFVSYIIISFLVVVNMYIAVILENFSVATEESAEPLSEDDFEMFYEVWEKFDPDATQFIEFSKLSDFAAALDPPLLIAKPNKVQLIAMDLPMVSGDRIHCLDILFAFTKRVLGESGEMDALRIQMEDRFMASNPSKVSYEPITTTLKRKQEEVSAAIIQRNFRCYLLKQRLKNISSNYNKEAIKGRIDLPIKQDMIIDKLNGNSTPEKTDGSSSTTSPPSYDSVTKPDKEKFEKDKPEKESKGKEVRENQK
Sequence of hNav1.7 (Q15858 whole entry, looked up): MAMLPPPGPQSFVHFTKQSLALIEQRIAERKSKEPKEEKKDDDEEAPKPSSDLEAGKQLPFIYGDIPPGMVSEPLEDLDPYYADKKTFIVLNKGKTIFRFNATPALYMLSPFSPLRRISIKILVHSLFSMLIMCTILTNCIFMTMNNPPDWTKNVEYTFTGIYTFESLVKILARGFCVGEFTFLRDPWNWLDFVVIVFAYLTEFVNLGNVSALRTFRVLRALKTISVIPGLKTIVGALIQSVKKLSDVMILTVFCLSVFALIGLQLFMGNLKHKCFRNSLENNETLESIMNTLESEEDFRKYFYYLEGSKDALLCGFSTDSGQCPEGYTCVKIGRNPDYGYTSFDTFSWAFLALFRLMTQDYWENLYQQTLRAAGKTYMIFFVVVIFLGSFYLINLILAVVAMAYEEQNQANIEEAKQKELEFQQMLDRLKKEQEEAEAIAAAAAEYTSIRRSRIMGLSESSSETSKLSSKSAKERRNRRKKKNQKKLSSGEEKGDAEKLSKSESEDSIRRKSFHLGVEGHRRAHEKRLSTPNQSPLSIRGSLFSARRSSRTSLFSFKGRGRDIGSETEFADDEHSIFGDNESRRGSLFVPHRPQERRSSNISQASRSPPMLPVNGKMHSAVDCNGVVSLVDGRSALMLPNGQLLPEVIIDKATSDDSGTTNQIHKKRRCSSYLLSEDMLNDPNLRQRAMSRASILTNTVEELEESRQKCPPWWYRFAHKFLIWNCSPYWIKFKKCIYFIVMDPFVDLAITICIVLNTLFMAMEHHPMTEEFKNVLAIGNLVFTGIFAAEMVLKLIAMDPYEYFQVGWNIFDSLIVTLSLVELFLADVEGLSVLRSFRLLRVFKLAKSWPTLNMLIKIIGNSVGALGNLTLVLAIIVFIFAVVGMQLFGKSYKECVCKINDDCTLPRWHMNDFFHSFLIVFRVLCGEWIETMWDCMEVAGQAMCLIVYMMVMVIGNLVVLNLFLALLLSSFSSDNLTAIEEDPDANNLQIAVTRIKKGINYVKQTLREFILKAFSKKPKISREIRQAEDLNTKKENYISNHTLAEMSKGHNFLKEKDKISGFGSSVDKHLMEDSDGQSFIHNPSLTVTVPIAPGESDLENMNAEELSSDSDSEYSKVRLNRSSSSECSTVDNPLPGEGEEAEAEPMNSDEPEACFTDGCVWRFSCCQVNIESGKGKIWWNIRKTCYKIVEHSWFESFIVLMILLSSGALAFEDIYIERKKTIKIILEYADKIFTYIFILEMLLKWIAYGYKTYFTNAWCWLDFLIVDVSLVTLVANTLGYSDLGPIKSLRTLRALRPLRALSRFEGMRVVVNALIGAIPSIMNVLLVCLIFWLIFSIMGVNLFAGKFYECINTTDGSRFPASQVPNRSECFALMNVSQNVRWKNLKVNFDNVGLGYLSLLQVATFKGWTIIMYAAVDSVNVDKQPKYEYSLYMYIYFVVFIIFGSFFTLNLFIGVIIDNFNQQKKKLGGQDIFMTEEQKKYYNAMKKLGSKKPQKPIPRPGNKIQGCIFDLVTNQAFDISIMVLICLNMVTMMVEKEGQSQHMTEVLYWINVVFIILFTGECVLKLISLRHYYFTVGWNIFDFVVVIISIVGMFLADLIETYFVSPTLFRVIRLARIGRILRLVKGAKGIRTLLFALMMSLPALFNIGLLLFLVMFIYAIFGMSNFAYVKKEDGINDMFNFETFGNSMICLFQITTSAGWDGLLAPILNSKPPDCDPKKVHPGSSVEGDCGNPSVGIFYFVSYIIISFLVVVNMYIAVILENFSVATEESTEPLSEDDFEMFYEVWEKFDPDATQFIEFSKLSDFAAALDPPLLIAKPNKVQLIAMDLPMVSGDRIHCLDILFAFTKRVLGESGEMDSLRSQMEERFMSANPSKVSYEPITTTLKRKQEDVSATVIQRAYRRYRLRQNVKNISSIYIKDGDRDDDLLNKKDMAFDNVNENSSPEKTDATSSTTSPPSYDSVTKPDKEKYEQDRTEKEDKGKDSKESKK

`CC[C@H](C)[C@@H]1NC(=O)[C@@H]2CSSC[C@@H]3NC(=O)[C@H](C(C)C)NC(=O)[C@H](CC(C)C)NC(=O)[C@H](Cc4c[nH]c5ccccc45)NC(=O)[C@@H]4CCCN4C(=O)[C@H](CCCNC(=N)N)NC(=O)[C@H](CSSC[C@H](NC(=O)[C@@H](N)CC(=O)O)C(=O)N[C@@H](CC(C)C)C(=O)NCC(=O)N[C@@H](Cc4ccccc4)C(=O)N[C@@H](CCSC)C(=O)N[C@@H](CCCNC(=N)N)C(=O)N[C@@H](CCCCN)C(=O)N2)NC(=O)[C@H](CSSC[C@@H](C(=O)N[C@@H](CCCCN)C(=O)N[C@@H](Cc2ccc(O)cc2)C(=O)N[C@H](C(=O)N[C@@H](Cc2ccccc2)C(N)=O)C(C)C)NC(=O)[C@H](Cc2c[nH]c4ccccc24)NC(=O)[C@H](CCCCN)NC(=O)[C@H](Cc2cnc[nH]2)NC(=O)[C@H]([C@@H](C)O)NC(=O)[C@H](CCCNC(=N)N)NC(=O)[C@H](CO)NC3=O)NC(=O)[C@H](CCCCN)NC(=O)[C@H](CC(=O)O)NC(=O)[C@H](CC(N)=O)NC(=O)[C@H](CC(=O)O)NC(=O)[C@@H]2CCCN2C1=O` [compound 175] (H-DCLGFMRKCIPDNDKCCRPWLVCSRTHKWCKYVF-NH2; disulfide 2-17, 9-23, 16-30) was tested, and the pIC50 ([1]; Use) was 7.70, the pIC50 [2, 4] was 5.13 and the pIC50 ([3]; Use) was 7.30.
With `CC[C@H](C)[C@@H]1NC(=O)[C@@H]2CSSC[C@@H]3NC(=O)[C@H](C(C)C)NC(=O)[C@H](CC(C)C)NC(=O)[C@H](CC(N)=O)NC(=O)[C@@H]4CCCN4C(=O)[C@H](CCCNC(=N)N)NC(=O)[C@H](CSSC[C@H](NC(=O)[C@@H](N)CC(=O)O)C(=O)N[C@@H](CC(C)C)C(=O)NCC(=O)N[C@@H](Cc4ccc(C(C)(C)C)cc4)C(=O)N[C@@H](CCSC)C(=O)N[C@@H](CCCNC(=N)N)C(=O)N[C@@H](CCCCN)C(=O)N2)NC(=O)[C@H](CSSC[C@@H](C(=O)N[C@@H](CCCCN)C(=O)N[C@@H](Cc2ccc(O)cc2)C(=O)N[C@H](C(=O)N[C@@H](Cc2ccccc2)C(N)=O)C(C)C)NC(=O)[C@H](Cc2c[nH]c4ccccc24)NC(=O)[C@H](CCCCN)NC(=O)[C@H](Cc2c[nH]cn2)NC(=O)[C@H]([C@@H](C)O)NC(=O)[C@H](CCCNC(=N)N)NC(=O)[C@H](CO)NC3=O)NC(=O)[C@H](CCCCN)NC(=O)[C@H](CC(=O)O)NC(=O)[C@H](CC(N)=O)NC(=O)[C@H](CC(=O)O)NC(=O)[C@@H]2CCCN2C1=O` [compound 687] the pIC50 ([1]; use-dependent protocol, hNav1.3) was 6.89, the pIC50 ([2]; IWQ Use Nav1.5) was < 5.30 and the pIC50 ([3]; use-dependent protocol, hNav1.7) was 6.57.
`CC[C@H](C)[C@@H]1NC(=O)[C@@H]2CSSC[C@@H]3NC(=O)[C@H](C(C)C)NC(=O)[C@H](CC(C)C)NC(=O)[C@H](CC(N)=O)NC(=O)[C@@H]4CCCN4C(=O)[C@H](CCCNC(=N)N)NC(=O)[C@H](CSSC[C@H](NC(=O)[C@H](CC(=O)O)NC(=O)[C@H](CO)NC(=O)CN)C(=O)N[C@@H](CC(C)C)C(=O)NCC(=O)N[C@@H](C)C(=O)N[C@@H](CC(C)C)C(=O)N[C@@H](CCCNC(=N)N)C(=O)N[C@@H](CCCCN)C(=O)N2)NC(=O)[C@H](CSSC[C@@H](C(=O)N[C@@H](CCCCN)C(=O)N[C@@H](Cc2ccc(O)cc2)C(=O)N[C@H](C(=O)N[C@@H](Cc2ccccc2)C(N)=O)C(C)C)NC(=O)[C@H](Cc2c[nH]c4ccccc24)NC(=O)[C@H](CCCNC(=N)N)NC(=O)[C@H](Cc2c[nH]cn2)NC(=O)[C@H]([C@@H](C)O)NC(=O)[C@H](CCCNC(=N)N)NC(=O)[C@H](CO)NC3=O)NC(=O)[C@H](CCCCN)NC(=O)[C@H](CC(=O)O)NC(=O)[C@H](CC(N)=O)NC(=O)[C@H](CC(=O)O)NC(=O)[C@@H]2CCCN2C1=O` [compound 812] (H-GSDCLGALRKCIPDNDKCCRPNLVCSRTHRWCKYVF-NH2; disulfide 4-19, 11-25, 18-32) was tested, and the pIC50 ([1]; use-dependent block, hNav1.3) was 6.70, the pIC50 [2, 5] was < 5.30 and the pIC50 ([3]; use-dependent block, hNav1.7) was 6.70.
Work on `CC[C@H](C)[C@@H]1NC(=O)[C@@H]2CSSC[C@@H]3NC(=O)[C@H](C(C)C)NC(=O)[C@H](CC(C)C)NC(=O)[C@H](CC(N)=O)NC(=O)[C@@H]4CCCN4C(=O)[C@H](CCCNC(=N)N)NC(=O)[C@H](CSSC[C@H](NC(=O)[C@@H](N)CC(=O)O)C(=O)N[C@@H](CC(C)C)C(=O)NCC(=O)N[C@@H](Cc4ccccc4)C(=O)N[C@@H](CCSC)C(=O)N[C@@H](CCCNC(=N)N)C(=O)N[C@@H](CCCCN)C(=O)N2)NC(=O)[C@H](CSSC[C@@H](C(=O)N[C@@H](CCCCN)C(=O)N[C@@H](Cc2ccc(O)cc2)C(=O)N[C@@H](Cc2c[nH]c4ccccc24)C(=O)N[C@@H](Cc2ccccc2)C(N)=O)NC(=O)[C@H](Cc2c[nH]c4ccccc24)NC(=O)[C@H](CCCCN)NC(=O)[C@H](Cc2c[nH]cn2)NC(=O)[C@H]([C@@H](C)O)NC(=O)[C@H](CCCNC(=N)N)NC(=O)[C@H](CO)NC3=O)NC(=O)[C@H](CCCCN)NC(=O)[C@H](CC(=O)O)NC(=O)[C@H](CC(N)=O)NC(=O)[C@H](CC(=O)O)NC(=O)[C@@H]2CCCN2C1=O` [compound 180] (H-DCLGFMRKCIPDNDKCCRPNLVCSRTHKWCKYWF-NH2; disulfide 2-17, 9-23, 16-30) yielded a pIC50 ([1]; Table 26, use, […]) of 8.05, a pIC50 ([2]; Table 26, IonWorks Quattro, use, […], read-out: IWQ Use Nav1.5) of 5.04 and a pIC50 ([3]; Table 26, use, […]) of 7.30.
Molecule `CC[C@H](C)[C@@H]1NC(=O)[C@@H]2CSSC[C@@H]3NC(=O)[C@H](C(C)C)NC(=O)[C@H](CC(C)C)NC(=O)[C@H](CC(N)=O)NC(=O)[C@@H]4CCCN4C(=O)[C@H](CCCNC(=N)N)NC(=O)[C@H](CSSC[C@H](NC(=O)[C@@H](N)CC(=O)O)C(=O)N[C@@H](CC(C)C)C(=O)NCC(=O)N[C@@H](Cc4ccccc4)C(=O)N[C@@H](CCSC)C(=O)N[C@@H](CCCNC(=N)N)C(=O)N[C@@H](CCCCN)C(=O)N2)NC(=O)[C@H](CSSC[C@@H](C(=O)N[C@@H](CCCCN)C(=O)N[C@@H](Cc2ccc(O)cc2)C(=O)N[C@H](C(=O)N[C@@H](Cc2ccccc2)C(N)=O)C(C)C)NC(=O)[C@H](Cc2c[nH]c4ccccc24)NC(=O)[C@H](CCCCN)NC(=O)[C@H](Cc2ccc(C(=O)O)cc2)NC(=O)[C@H]([C@@H](C)O)NC(=O)[C@H](CCCNC(=N)N)NC(=O)[C@H](CO)NC3=O)NC(=O)[C@H](CCCCN)NC(=O)[C@H](CC(=O)O)NC(=O)[C@H](CC(N)=O)NC(=O)[C@H](CC(=O)O)NC(=O)[C@@H]2CCCN2C1=O` [compound 351] (H-DCLGFMRKCIPDNDKCCRPNLVCSRT[Phe(4-COOH)]KWCKYVF-NH2; disulfide 2-17, 9-23, 16-30) has a pIC50 ([1]; Table 23, use, […]) of 5.08, a pIC50 ([2]; Table 23, IonWorks Quattro, use, […], read-out: IWQ Use Nav1.5) of 5.18 and a pIC50 ([3]; Table 23, use, […]) of 4.81.
`CC[C@H](C)[C@@H]1NC(=O)[C@@H]2CSSC[C@@H]3NC(=O)[C@H](C(C)C)NC(=O)[C@H](CC(C)C)NC(=O)[C@H](CC(N)=O)NC(=O)[C@@H]4CCCN4C(=O)[C@H](CCCNC(=N)N)NC(=O)[C@H](CSSC[C@H](NC(=O)[C@@H](N)CC(=O)O)C(=O)N[C@@H](CC(C)C)C(=O)NCC(=O)N[C@@H](C)C(=O)N[C@@H](CC(C)C)C(=O)N[C@@H](CCCNC(=N)N)C(=O)N[C@@H](CCCCN)C(=O)N2)NC(=O)[C@H](CSSC[C@@H](C(=O)N[C@@H](CCCCN)C(=O)N[C@@H](Cc2ccc(O)cc2)C(=O)N[C@H](C(=O)N[C@@H](Cc2ccccc2)C(=O)O)C(C)C)NC(=O)[C@H](Cc2c[nH]c4ccccc24)NC(=O)[C@H](CCCNC(=N)N)NC(=O)[C@H](Cc2c[nH]cn2)NC(=O)[C@H]([C@@H](C)O)NC(=O)[C@H](CCCNC(=N)N)NC(=O)[C@H](CO)NC3=O)NC(=O)[C@H](CCCCN)NC(=O)[C@H](CC(=O)O)NC(=O)[C@H](CCC(N)=O)NC(=O)[C@H](CC(=O)O)NC(=O)[C@@H]2CCCN2C1=O` [compound 869] (H-DCLGALRKCIPDQDKCCRPNLVCSRTHRWCKYVF-OH; disulfide 2-17, 9-23, 16-30) was tested, and the pIC50 ([1]; use-dependent block, hNav1.3) was < 5.30, the pIC50 [2, 5] was < 5.30 and the pIC50 ([3]; use-dependent block, hNav1.7) was < 5.30.
`CC[C@H](C)[C@@H]1NC(=O)[C@H](CC(C)C)NC(=O)[C@H](CC(N)=O)NC(=O)[C@@H]2CCCN2C(=O)[C@H](CCCNC(=N)N)NC(=O)[C@@H]2CSSC[C@H](NC(=O)[C@@H](N)CC(=O)O)C(=O)N[C@@H](CC(C)C)C(=O)NCC(=O)N[C@@H](Cc3ccccc3)C(=O)N[C@@H](CCSC)C(=O)N[C@@H](CCCNC(=N)N)C(=O)N[C@@H](CCCCN)C(=O)N[C@H]3CSSC[C@H](NC1=O)C(=O)N[C@@H](CO)C(=O)N[C@@H](CCCNC(=N)N)C(=O)N[C@@H]([C@@H](C)O)C(=O)N[C@@H](Cc1c[nH]cn1)C(=O)N[C@@H](CCCCN)C(=O)N[C@@H](Cc1c[nH]c4ccccc14)C(=O)N[C@H](C(=O)N[C@@H](CCCCN)C(=O)N[C@@H](Cc1ccc(O)cc1)C(=O)N[C@H](C(=O)N[C@@H](Cc1ccccc1)C(N)=O)C(C)C)CSSC[C@H](NC(=O)[C@H](CCCCN)NC(=O)[C@H](CC(=O)O)NC(=O)[C@H](CC(N)=O)NC(=O)[C@H](CC(=O)O)NC(=O)[C@@H]1CCCN1C(=O)[C@H]([C@@H](C)CC)NC3=O)C(=O)N2` [compound 321] (H-DCLGFMRKCIPDNDKCCRPNLICSRTHKWCKYVF-NH2; disulfide 2-17, 9-23, 16-30) showed a pIC50 ([1]; Use) of 7.15, a pIC50 [2, 4] of 4.94 and a pIC50 ([3]; Use) of 7.10.
